From US20060258738A1, “Use of dronabinol for treatment of side effects of Hepatitis C therapy” (priority 2005, published 2006)

Experiments:
[1] = system: GI side effects (nausea/vomiting, anorexia and weight loss) related to anti-HCV therapy; experiment: Retrospective chart review: open label dronabinol for GI side effects of anti-HCV therapy, positive response; type: in vivo, human; conditions: whole cohort
Method: A retrospective chart review of 22 patients with chronic HCV receiving IFN (Pegylated n=18, standard n=4) and RBV was performed. All were receiving open label dronabinol for specific GI side effects (nausea/vomiting, anorexia and weight loss) related to anti-HCV therapy. Over half the cohort (13/22) were co-infected with HIV. Demographic, clinical, and virological data was recorded at baseline (pre dronabinol therapy); Body Mass Index (BMI) was calculated at baseline, and at the end of dronabinol therapy.
A positive response to dronabinol was defined as follows: […]
Subjective: Documentation in chart of improvement in symptoms of nausea, vomiting or anorexia, as reported by patient.
Objective: No change or increase in BMI at end of dronabinol treatment compared to baseline.

[2] = Retrospective chart review: adverse events, tolerability and discontinuation of dronabinol

SMILES: CCCCCc1cc(O)c2c(c1)OC(C)(C)[C@@H]1CCC(C)=C[C@@H]21 [dronabinol, delta-9-tetrahydrocannabinol]
- Positive outcome, both for improvement in symptoms and stabilization or increase in BMI [1]: over 40%
- Tolerability ([2]; the 4 members of the cohort aged 60 or greater): well tolerated
- Tolerability ([2]; whole cohort, including those with HIV/HCV): well-tolerated by the majority of the cohort
